This is an account of results in PMC6789174 (Drug Design, Development and Therapy, 2019).

≈ marks a conversion by molar mass, not a printed value.

The target in assay [1] is Butyrylcholinesterase (Homo sapiens, UniProt P06276). Description: Anticholinesterase assay. The assay is classed as biochemical. As to conditions: for inhibition at 125 µg/mL / inhibition at 1000 µg/mL / inhibition at 250 µg/mL / inhibition at 500 µg/mL: read-out: %BChE Inhibition (mean ± SEM).
The target of assay [2] is Acetylcholinesterase (Homo sapiens, UniProt P22303). Briefly: biochemical.
The target of assay [3] is T1, porcine α-amylase (Sus scrofa, UniProt P00690).
T1 sequence (P00690 16-511): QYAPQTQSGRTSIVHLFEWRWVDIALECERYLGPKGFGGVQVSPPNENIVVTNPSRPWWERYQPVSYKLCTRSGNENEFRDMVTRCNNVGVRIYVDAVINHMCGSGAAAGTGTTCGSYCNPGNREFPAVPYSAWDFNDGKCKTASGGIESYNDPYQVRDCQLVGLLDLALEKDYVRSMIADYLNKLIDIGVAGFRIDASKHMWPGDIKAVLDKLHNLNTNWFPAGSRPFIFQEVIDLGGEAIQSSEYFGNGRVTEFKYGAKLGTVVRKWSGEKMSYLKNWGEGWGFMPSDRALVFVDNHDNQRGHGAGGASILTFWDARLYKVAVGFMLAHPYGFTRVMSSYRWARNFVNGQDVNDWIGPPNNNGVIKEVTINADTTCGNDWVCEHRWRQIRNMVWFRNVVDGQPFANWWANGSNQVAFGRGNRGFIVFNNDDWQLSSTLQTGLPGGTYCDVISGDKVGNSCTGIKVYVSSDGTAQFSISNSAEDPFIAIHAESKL
Description: biochemical. The settings on record: for inhibition at 125 µg/mL: read-out: %Inhibition (mean ± SEM), alpha amylase, concentration 125 µg/mL; for inhibition at 250 µg/mL: read-out: %Inhibition (mean ± SEM), alpha amylase, concentration 250 µg/mL; for inhibition at 500 µg/mL: read-out: %Inhibition (mean ± SEM), alpha amylase, concentration 500 µg/mL; for inhibition at 1000 µg/mL: read-out: %Inhibition (mean ± SEM), alpha amylase, concentration 1000 µg/mL.

Assay [4] addresses T2, glucose-6-phosphatase (Homo sapiens, UniProt P35575).
T2 sequence (P35575 1-357): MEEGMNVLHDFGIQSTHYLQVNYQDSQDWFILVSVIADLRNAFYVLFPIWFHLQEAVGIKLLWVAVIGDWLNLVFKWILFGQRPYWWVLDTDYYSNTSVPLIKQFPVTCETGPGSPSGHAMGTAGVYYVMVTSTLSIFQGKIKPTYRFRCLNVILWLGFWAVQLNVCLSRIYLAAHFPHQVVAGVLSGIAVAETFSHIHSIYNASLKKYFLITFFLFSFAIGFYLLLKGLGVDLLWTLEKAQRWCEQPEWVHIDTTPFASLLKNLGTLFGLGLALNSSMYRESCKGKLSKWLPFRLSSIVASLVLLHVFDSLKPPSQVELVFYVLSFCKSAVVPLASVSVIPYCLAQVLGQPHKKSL
Briefly: Glucose-6-phosphatase activity. The format is biochemical. As to conditions: for Total Activity of glucose-6-phosphatase: 33°C, pH 6.7, control 72.0.

Assay [5] in a line: DPPH free radical scavenging.
The nature of assay [6]: ABTS free radical scavenging.
The test system of assay [7] is Agrobacterium tumefaction. Briefly: Anti-bacterial activity, agar well diffusion. The format is cell-based. The settings on record: for MIC: read-out: MIC, Agrobacterium tumefaction; for zone of inhibition at 10 µg/mL / zone of inhibition at 20 µg/mL / zone of inhibition at 30 µg/mL: read-out: ZI (Zone of inhibition), Agrobacterium tumefaction. In general terms: A growth-free zone around the sample is the usual read-out of agar diffusion tests.

For assay [8], the system named is Proteus vulgaris. Briefly: Anti-bacterial activity, agar well diffusion. The format is cell-based. The settings on record: for MIC: read-out: MIC, Proteus vulgaris; for zone of inhibition at 10 µg/mL / zone of inhibition at 20 µg/mL / zone of inhibition at 30 µg/mL: read-out: ZI (Zone of inhibition), Proteus vulgaris.
Assay [9] has as its system Staphylococcus aureus. Description: Anti-bacterial activity, agar well diffusion. The format is cell-based. The settings on record: for MIC: read-out: MIC, Staphylococcus aureus; for zone of inhibition at 10 µg/mL / zone of inhibition at 20 µg/mL / zone of inhibition at 30 µg/mL: read-out: ZI (Zone of inhibition), Staphylococcus aureus.
Where [10] appears, read: read-out: %AChE Inhibition (mean ± SEM).

Chain of Acetylcholinesterase (P22303 32-614, species assumed): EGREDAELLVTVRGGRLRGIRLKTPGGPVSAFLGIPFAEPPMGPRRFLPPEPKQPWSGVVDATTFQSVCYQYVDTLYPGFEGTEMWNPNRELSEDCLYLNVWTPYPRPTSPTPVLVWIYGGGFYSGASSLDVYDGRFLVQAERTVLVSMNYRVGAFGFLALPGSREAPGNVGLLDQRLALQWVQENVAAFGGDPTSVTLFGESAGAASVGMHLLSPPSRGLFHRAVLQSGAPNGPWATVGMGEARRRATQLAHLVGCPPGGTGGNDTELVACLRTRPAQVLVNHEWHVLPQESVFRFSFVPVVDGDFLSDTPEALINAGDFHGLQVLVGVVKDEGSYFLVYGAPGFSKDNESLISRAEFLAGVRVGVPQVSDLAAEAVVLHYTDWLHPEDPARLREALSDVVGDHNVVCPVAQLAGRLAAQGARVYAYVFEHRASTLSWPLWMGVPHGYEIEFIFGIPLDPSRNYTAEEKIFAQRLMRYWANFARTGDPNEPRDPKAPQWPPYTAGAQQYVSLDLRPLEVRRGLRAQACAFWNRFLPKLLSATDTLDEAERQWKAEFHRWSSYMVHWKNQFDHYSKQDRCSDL
Chain of Butyrylcholinesterase (P06276 29-602): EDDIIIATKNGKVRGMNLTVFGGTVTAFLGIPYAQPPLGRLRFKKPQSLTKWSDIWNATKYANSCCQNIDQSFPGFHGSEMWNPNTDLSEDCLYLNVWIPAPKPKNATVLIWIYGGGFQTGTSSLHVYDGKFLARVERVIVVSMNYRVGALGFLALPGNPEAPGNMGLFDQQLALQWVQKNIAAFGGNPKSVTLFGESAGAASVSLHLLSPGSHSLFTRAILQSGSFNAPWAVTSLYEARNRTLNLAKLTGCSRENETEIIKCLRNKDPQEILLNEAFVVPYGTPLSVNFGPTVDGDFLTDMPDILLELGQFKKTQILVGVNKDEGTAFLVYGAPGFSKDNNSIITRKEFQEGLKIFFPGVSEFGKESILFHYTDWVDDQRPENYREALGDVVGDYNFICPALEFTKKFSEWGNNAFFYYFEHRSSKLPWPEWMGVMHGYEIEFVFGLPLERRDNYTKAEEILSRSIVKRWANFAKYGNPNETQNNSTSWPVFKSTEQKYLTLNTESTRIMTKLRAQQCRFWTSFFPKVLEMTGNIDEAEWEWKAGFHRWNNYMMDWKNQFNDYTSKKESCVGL

In the case of `COc1ccc2c3c1O[C@H]1C[C@@H](O)C=C[C@@]31CCN(C)C2` [Galantamine, reference compound], the “%BChE Inhibition (mean ± SEM)” value in assay [1] (concentration 500 μg/mL) is listed as 87.16 ± 1.23%. In assay [1], the inhibition at 125 µg/mL worked out at 64.8 ± 0.73% and the inhibition at 1000 µg/mL is 92.3 ± 0.74%.

In general, IC50 refers to the midpoint of a concentration-inhibition curve. Lower therefore signals greater potency. By MIC is commonly meant the least concentration at which growth counts as inhibited. In general, zone of inhibition refers to the extent of the growth-free halo in a diffusion test. In the case of `Fc1ccccc1NC(=S)Nc1ccccc1` [Compound V, 1-(2-fluorophenyl)-3-phenylthiourea], the IC50 in assay [2] is 739 µM; in assay [1] it was 406 µM; in [3] it was 406 µM. The inhibition at 125 µg/mL in assay [2] (setting [10]) turned out to be 51.8 ± 1.72%; in assay [1] it was 53.07 ± 0.48%; in assay [3] it was 52.1 ± 2.11%. The inhibition at 250 µg/mL in assay [2] (setting [10]) was 56.3 ± 2.14%; in assay [1] it was 55.1 ± 1.04%; in [3] it was 55.91 ± 0.43%. The inhibition at 500 µg/mL is 68.2 ± 1.25% in assay [2] (setting [10]), 59.1 ± 1.76% in assay [1] and 59.5 ± 1.24% in [3]. Moreover, the inhibition at 1000 µg/mL in [2] (setting [10]) came to 70.2 ± 1.09%; in assay [1] it was 62.7 ± 1.22%; in [3], 62.8 ± 1.13%. Further, in assay [4] (compared to control experiments), the “Glucose-6-phosphatase inhibition, in words” value was “most potent inhibitors”. In addition, the “Total Activity of glucose-6-phosphatase” value in assay [4] (concentration 125 µg/mL) is on record as 05.66 mg of P released per hour; in assay [4] (concentration 250 µg/mL) it was 05.21 mg of P released per hour; in [4] (concentration 500 µg/mL), 04.16 mg of P released per hour. Moreover, the “DPPH IC50” value in [5] amounted to 70 µg/mL. The “DPPH % I (mean ± S.E.M)” value in assay [5] (concentration 125 μg/mL) was found to be 68.83 ± 1.53%; in assay [5] (concentration 250 μg/mL) it was 70.55 ± 1.27%; in [5] (concentration 500 μg/mL) it was 71.50 ± 1.61%; in assay [5] (concentration 1000 μg/mL), 73.14 ± 1.10%. The “ABTS IC50” value in assay [6] was 85 µg/mL. Also, the “ABTS % I (mean ± S.E.M)” value is 69.45 ± 1.29% in [6] (concentration 125 μg/mL), 71.14 ± 1.90% in assay [6] (concentration 250 μg/mL), 73.18 ± 1.46% in assay [6] (concentration 500 μg/mL) and 75.04 ± 0.10% in assay [6] (concentration 1000 μg/mL). The MIC in assay [7] is 11.6 µg/mL (≈ 47.1 µM); in assay [8] it was 8.94 µg/mL (≈ 36.3 µM); in assay [9] it was 24.1 µg/mL (≈ 97.9 µM). The figures for the zone of inhibition at 10 µg/mL in [7], in [8] and in assay [9] were 15 mm, 16 mm and 12 mm, respectively. Moreover, the zone of inhibition at 20 µg/mL in assay [7] came to 20 mm; in [8], 21 mm; in assay [9] it was 14 mm. Further, the zone of inhibition at 30 µg/mL in assay [7] was determined as 25 mm; in [8], 24 mm; in assay [9] it was 16 mm.

Consider `O=C1O[C@H]([C@@H](O)CO)C(O)=C1O` [Ascorbic acid, reference compound], for which the “DPPH IC50” value in assay [5] is 35 µg/mL. The “DPPH % I (mean ± S.E.M)” value turned out to be 67.40±1.18% in assay [5] (concentration 125 μg/mL), 76.13±1.45% in assay [5] (concentration 250 μg/mL), 85.11 ± 1.64% in [5] (concentration 500 μg/mL) and 90.14 ± 0.76% in assay [5] (concentration 1000 μg/mL). The “ABTS IC50” value in [6] came out at 55 µg/mL. In addition, the “ABTS % I (mean ± S.E.M)” value was determined as 55.30 ± 1.75% in [6] (concentration 125 μg/mL), 70.14 ± 1.16% in [6] (concentration 250 μg/mL), 85.45 ± 1.36% in assay [6] (concentration 500 μg/mL) and 88.17 ± 0.43% in [6] (concentration 1000 μg/mL).

Turning to `S=C(NC(c1ccccn1)C(Cc1ccccc1)Cc1ccccc1)NC(c1ccccn1)C(Cc1ccccc1)Cc1ccccc1` (stereo not shown) [Compound I, 1,3-bis(2-benzyl-3-phenyl-1-(pyridine-2-yl)propyl)thiourea], the results for the IC50 in [2], in assay [1] and in assay [3] were 1550 µM, 309 µM and 130 µM, respectively. In addition, the “%AChE Inhibition (mean ± SEM)” value in [2] (concentration 500 μg/mL) was 55.59 ± 1.23%. Moreover, the inhibition at 125 µg/mL was 38.6 ± 1.33% in [2] (setting [10]), 48.1 ± 1.08% in assay [1] and 60.2 ± 1.03% in assay [3]. The inhibition at 250 µg/mL in assay [2] (setting [10]) was 46.1 ± 1.85%; in [1] it was 51.4 ± 2.05%; in assay [3] it was 63.1 ± 1.41%. Further, the inhibition at 1000 µg/mL in assay [2] (setting [10]) came out at 68.1 ± 1.4%; in assay [1] it was 57.81 ± 0.54%; in assay [3], 70.29 ± 0.31%. For the same compound, the inhibition at 500 µg/mL in assay [1] came to 56.3 ± 1.66%; in assay [3], 68.1 ± 0.87%. Also, the “Total Activity of glucose-6-phosphatase” value is recorded as 34.11 mg of P released per hour in assay [4] (concentration 125 µg/mL), 31.62 mg of P released per hour in assay [4] (concentration 250 µg/mL) and 25.31 mg of P released per hour in assay [4] (concentration 500 µg/mL). Further, the “DPPH IC50” value in [5] was found to be 67 µg/mL. Besides, the “DPPH % I (mean ± S.E.M)” value in assay [5] (concentration 125 μg/mL) is on record as 78.55 ± 1.73%; in assay [5] (concentration 250 μg/mL), 80.21 ± 1.21%; in assay [5] (concentration 500 μg/mL) it was 82.16 ± 1.01%; in assay [5] (concentration 1000 μg/mL) it was 86.67 ± 1.20%. The “ABTS IC50” value in [6] was 66 µg/mL. In addition, the “ABTS % I (mean ± S.E.M)” value in [6] (concentration 125 μg/mL) is recorded as 77.55 ± 1.93%; in assay [6] (concentration 250 μg/mL), 78.21 ± 1.21%; in assay [6] (concentration 500 μg/mL), 80.16 ± 2.01%; in [6] (concentration 1000 μg/mL), 81.67 ± 1.20%. The MIC is 4.02 µg/mL (≈ 6.21 µM) in assay [7], 9.76 µg/mL (≈ 15.1 µM) in assay [8] and 19.6 µg/mL (≈ 30.3 µM) in assay [9]. The zone of inhibition at 10 µg/mL in assay [7] turned out to be 21 mm; in assay [8], 15 mm; in assay [9], 13 mm. Further, the figures for the zone of inhibition at 20 µg/mL in assay [7], in [8] and in assay [9] were 24 mm, 22 mm and 16 mm, respectively. In addition, the results for the zone of inhibition at 30 µg/mL in assay [7], in assay [8] and in assay [9] were 26 mm, 24 mm and 18 mm, respectively.
